Reference: patent publication US20250145589A1, “PYRIDINE DERIVATIVE AND USE THEREOF” (SICHUAN HUIYU PHARMACEUTICAL CO., LTD., priority 2021, published 2025)
Like-named read-outs stand apart in the source and are kept apart here.

Experiments:
PI3Kα = PI3Kα (Homo sapiens (Human), UniProt P42336); experiment: Inhibition of PI3Kα efficacy assay (ADP-Glo kinase assay); format: biochemical; conditions: read-out: PI3Kα inhibitory activity (IC50)
Method in brief: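 ADP-Glo luminescent detection of ADP from PI3Kα acting on PI substrate with ATP, 60 min at RT; compounds in 8-point five-fold serial dilution from 2 mM DMSO stock. IC50 from four-parameter variable-slope fit.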

PI3Kδ = PI3Kδ (Homo sapiens (Human), UniProt O00329); experiment: Inhibition of PI3Kδ efficacy assay (ADP-Glo kinase assay); format: biochemical; conditions: read-out: PI3Kδ inhibitory activity (IC50)
Method in brief: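 Luminescent ADP-Glo readout of PI3Kδ: after a 60 min RT reaction with PI/ATP substrate, ATP depletion (40 min) and ADP detection (40 min) steps followed. Compounds tested as eight five-fold serial dilutions; inhibition rates fitted to log(inhibitor) vs. response, variable slope, for IC50.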

KRAS^G12C-SOS1 = KRAS^G12C-SOS1 (Homo sapiens (Human), UniProt P01116, G12C); experiment: HTRF KRAS G12C/SOS1 binding assay; conditions: Table 5
Method: Initially, a 2 mM stock solution of the test compound (dissolved in DMSO) was serially diluted in five-fold concentrations using DMSO to obtain eight working solutions 1 (200×). Subsequently, each of the eight working solutions 1 was further diluted in a 20-fold gradient by adding 5 μL into 95 μL of Diluent buffer, mixed completely with vortex mixer, resulting in eight working solutions 2 (10×). […] Subsequently, 5 μL of Anti-tag 1-Tb^3+ stock solution and 5 μL of Anti-tag2-XL665 were added to each well, mixed, and incubated at 4° C. for 3 hours. Remove the plate and read on an HTRF® compatible reader, with the excitation light wavelength set at 337 nm and readings recorded at 620 nm and 665 nm. The data results were presented as the ratio of the 665 nm signal value to the 620 nm signal value for each well, calculated as follows: […]. The inhibition rate was calculated using the following formula: […]
Data were analyzed using GraphPad Prism with log (inhibitor) vs. response-Variable Slope (four parameters) fitting calculations for IC50 values.

[1] = system: MIA PaCa-2 cells (KRAS G12C mutant); experiment: MIA PaCa-2 cell anti-proliferation (CellTiter-Glo); format: cell-based; conditions: Homo sapiens, 72 h; MIA Paca-2 cells, 3 days, Table 7; read-out: MIA PaCa-2 (IC50)
Method in brief: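 Viable-cell luminescence (CellTiter-Glo, ≥30 min at 25 °C) measured after a 3-day, 37 °C exposure to compounds at 9 points, 4-fold spaced, in DMEM containing 10% FBS plus 2.5% horse serum. IC50 derived versus no-inhibitor wells.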

[2] = system: NCI-H358 cells (KRAS G12C mutant); experiment: NCI-H358 cell proliferation inhibition (CellTiter-Glo); format: cell-based; conditions: Homo sapiens, NCI-H358, 72 h; H358 cells (G12C mutation), 3 days, Table 6; read-out: NCI-H358 (IC50)
[3] = system: NCI-H358-AMGR drug-resistant cell line; experiment: NCI-H358-AMGR drug-resistant cell proliferation inhibitory activity test; format: cell-based; conditions: 72 h; NCI-H358-AMGR drug-resistant cells, 3 days incubation, CellTiter-Glo
Method: Test Example 6t Generation of NCI-H358-AMGR Drug-Resistant Cell Line
NCI-H358 cells were seeded and cultured at 50 to 70% confluence in six-well plate with RPMI-640 (10% FBS) medium at 37° C. with 5%4 CO2. AMG510 was added for induction at three starting concentrations of 1 nM, 10 nM and 50 nM, and the medium containing the same concentration of AMG510 was replaced every 3 days. Cells were passaged once they reached confluence. After every, two passages at a given concentration of drug, the concentration was increased in a 3-old increment until final concentrations of 1 μM for AMG510 was achieved.
NCI-H358-AMGR cells in logarithmic growth phase were collected and seeded into a clear-bottom 96-well plate at a density of 4×10^3 cells per well in 80 μL of medium, and then incubated overnight at 37° C. with 5% CO2. The compounds were serially diluted 5-fold in DMSO to obtain 8 concentrations, and then further diluted with RPMI-640) (10% FBS) cell culture medium to obtain the working solutions (5×), 20 μL of each working solution was added to the cell culture supernatant in each well, and the plate was further incubated for 3 days at 37° C. with 5% CO2. The plate was then equilibrated with CellTiter-Glo® reagent at room temperature (25° C.) for 10-30 minutes. After aspirating 50 μL of the medium, 50 μL of CellTiter-Glo®, reagent was added. The cells were thoroughly mixed with the CellTiter-Glo®, reagent using a microplate shaker for 2 minutes, and then incubated at room temperature for 10 minutes. The […] was placed in a multi-mode microplate reader to record the luminescence values (RLU).
The inhibitory rate was calculated using the following formula: […]
Data were analyzed using GraphPad Prism for IC50 values (Note: The negative control refers to the group without inhibitor).

Sequence of KRAS^G12C-SOS1 (P01116-2 other isoform, or with tags, fused parts or gaps G12C): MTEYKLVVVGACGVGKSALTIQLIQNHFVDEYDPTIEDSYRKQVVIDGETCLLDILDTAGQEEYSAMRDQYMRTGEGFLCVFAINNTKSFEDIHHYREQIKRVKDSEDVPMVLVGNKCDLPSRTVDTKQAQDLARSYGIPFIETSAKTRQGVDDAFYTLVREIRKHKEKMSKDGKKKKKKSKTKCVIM
Sequence of PI3Kδ (O00329 whole entry): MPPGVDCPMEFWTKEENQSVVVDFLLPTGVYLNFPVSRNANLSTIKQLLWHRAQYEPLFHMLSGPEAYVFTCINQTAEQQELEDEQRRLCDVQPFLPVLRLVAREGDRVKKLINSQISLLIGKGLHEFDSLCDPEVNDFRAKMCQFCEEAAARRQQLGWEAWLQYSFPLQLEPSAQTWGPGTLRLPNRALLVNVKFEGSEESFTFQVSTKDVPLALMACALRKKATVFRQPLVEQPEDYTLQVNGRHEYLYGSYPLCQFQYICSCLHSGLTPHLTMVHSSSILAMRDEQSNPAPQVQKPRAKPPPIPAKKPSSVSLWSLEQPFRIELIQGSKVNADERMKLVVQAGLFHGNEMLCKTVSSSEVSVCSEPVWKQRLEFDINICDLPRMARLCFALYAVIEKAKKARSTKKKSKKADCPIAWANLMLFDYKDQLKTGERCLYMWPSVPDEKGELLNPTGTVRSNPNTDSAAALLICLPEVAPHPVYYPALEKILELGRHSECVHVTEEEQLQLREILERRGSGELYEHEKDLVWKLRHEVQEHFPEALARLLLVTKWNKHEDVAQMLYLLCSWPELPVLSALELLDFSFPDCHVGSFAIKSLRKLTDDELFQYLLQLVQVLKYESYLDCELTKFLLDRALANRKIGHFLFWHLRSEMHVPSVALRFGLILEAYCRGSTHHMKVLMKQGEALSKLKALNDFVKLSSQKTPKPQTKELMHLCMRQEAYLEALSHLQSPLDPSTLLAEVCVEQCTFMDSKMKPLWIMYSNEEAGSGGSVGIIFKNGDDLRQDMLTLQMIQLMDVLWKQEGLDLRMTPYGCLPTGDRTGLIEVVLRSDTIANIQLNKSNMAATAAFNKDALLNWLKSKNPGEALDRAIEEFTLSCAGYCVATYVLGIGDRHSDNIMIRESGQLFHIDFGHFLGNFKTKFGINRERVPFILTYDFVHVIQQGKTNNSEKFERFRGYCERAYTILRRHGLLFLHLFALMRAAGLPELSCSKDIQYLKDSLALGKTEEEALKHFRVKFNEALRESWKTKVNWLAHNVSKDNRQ
Sequence of PI3Kδ (P27986 whole entry partner): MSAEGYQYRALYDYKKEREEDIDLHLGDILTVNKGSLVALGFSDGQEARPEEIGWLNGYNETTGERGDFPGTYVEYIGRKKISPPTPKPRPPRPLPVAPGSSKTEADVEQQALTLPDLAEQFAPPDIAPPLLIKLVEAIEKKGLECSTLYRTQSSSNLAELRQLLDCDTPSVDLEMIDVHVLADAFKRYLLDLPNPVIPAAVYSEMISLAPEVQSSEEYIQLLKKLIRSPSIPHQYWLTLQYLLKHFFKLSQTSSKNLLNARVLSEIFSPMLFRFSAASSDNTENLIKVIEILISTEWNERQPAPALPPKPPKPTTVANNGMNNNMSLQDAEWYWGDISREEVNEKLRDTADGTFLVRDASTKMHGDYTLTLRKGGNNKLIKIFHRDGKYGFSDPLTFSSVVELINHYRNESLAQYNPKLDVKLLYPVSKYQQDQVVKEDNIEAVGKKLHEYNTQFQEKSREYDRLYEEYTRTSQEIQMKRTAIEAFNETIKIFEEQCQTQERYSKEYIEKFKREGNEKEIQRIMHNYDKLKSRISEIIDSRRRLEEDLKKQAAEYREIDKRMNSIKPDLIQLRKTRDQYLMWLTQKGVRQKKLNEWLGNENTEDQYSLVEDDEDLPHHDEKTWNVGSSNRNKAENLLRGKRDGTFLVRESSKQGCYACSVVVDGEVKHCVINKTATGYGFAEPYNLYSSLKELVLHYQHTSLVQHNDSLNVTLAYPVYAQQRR
Sequence of PI3Kα (P42336 whole entry): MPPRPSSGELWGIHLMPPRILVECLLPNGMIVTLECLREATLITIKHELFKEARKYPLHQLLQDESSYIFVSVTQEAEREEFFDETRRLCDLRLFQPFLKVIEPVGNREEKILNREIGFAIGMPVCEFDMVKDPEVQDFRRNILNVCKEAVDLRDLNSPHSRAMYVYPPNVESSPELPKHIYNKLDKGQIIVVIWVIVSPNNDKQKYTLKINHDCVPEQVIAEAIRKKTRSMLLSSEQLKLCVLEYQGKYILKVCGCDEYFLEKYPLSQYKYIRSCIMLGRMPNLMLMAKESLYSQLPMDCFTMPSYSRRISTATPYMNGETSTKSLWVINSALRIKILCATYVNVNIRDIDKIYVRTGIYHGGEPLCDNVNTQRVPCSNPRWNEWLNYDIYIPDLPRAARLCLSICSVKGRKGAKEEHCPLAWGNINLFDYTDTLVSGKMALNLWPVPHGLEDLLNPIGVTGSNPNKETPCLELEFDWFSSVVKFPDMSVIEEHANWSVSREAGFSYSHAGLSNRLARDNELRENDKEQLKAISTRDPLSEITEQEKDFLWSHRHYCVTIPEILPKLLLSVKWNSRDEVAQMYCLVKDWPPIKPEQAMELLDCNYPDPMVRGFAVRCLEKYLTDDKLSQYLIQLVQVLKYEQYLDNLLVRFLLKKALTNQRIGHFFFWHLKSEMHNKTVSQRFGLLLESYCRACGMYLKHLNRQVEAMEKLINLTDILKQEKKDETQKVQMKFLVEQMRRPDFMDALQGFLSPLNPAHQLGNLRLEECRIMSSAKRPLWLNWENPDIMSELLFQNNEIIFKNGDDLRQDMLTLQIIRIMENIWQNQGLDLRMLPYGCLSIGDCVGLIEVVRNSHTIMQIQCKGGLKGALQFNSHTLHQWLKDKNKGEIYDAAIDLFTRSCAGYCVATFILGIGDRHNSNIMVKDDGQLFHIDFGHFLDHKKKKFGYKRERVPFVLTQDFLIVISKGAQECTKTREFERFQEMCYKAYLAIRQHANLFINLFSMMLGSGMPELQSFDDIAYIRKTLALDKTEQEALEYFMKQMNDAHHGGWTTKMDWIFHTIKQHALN
Sequence of PI3Kα (P27986 whole entry partner): as the sequence (P27986 whole entry partner) above

Compound	IC50 (PI3Kα; Table 1) [nM]	IC50 (PI3Kδ; Table 1) [nM]	IC50 (KRAS^G12C-SOS1) [nM]	IC50 [1] [nM]	IC50 (PI3Kα; Table 2) [nM]	IC50 (PI3Kδ; Table 2) [nM]	IC50 [2] [nM]	IC50 [3] [nM]	IC50 (PI3Kα; Table 3) [nM]	IC50 (PI3Kδ; Table 3) [nM]	IC50 (PI3Kα; Table 4) [nM]	IC50 (PI3Kδ; Table 4) [nM]
CC(=O)/C=C/C(=O)N1CCN(c2ncnc3ccc(-c4cnc(Cl)c(NS(=O)(=O)c5ccc(F)cc5F)c4)cc23)CC1 [Example 34, (E)-N-(2-chloro-5-(4-(4-(4-oxopent-2-enoyl)piperazin-1-yl)quinazolin-6-yl)pyridin-3-yl)-2,4-difluorobenzenesulfonamide]	1.4	20.8	521	254	–	–	–	–	–	–	–	–
COc1ncc(-c2ccc3ncnc(N4CC5CCC(C4)N5C(=O)/C=C/C(C)=O)c3c2)cc1NS(=O)(=O)c1ccc(F)cc1F [Example 58, 2,4-difluoro-N-(2-methoxy-5-(4-(8-((E)-4-oxopent-2-enoyl)-3,8-diazabicyclo[3.2.1]octan-3-yl)quinazolin-6-yl)pyridin-3-yl)benzenesulfon-amide]	–	–	278	26.2	3.6	8.3	18.1	100	–	–	–	–
CC(=O)/C=C/C(=O)N1CCN(c2ncnc3ccc(-c4cnc(Cl)c(NS(=O)(=O)c5c(F)cccc5F)c4)cc23)CC1 [Example 84, (E)-N-(2-chloro-5-(4-(4-(4-oxopent-2-enoyl)piperazin-1-yl)quinazolin-6-yl)pyridin-3-yl)-2,6-difluorobenzenesulfonamide]	–	–	268	245	0.83	7.6	13	639	–	–	–	–
CC(=O)/C=C/C(=O)N1CCN(c2ncnc3ccc(-c4cnc(Cl)c(NS(=O)(=O)c5c(F)cccc5F)c4)cc23)[C@@H](C)C1 [Example 88, (S,E)-N-(2-chloro-5-(4-(2-methyl-4-(4-oxopent-2-enoyl)piperazin-1-yl)quinazolin-6-yl)pyridin-3-yl)-2,6-difluorobenzenesulfonamide]	–	–	219	333	2.6	11.8	80.9	–	–	–	–	–
CC(=O)/C=C/C(=O)N1CCN(c2ncnc3ccc(-c4cnc(Cl)c(NS(=O)(=O)c5c(F)cc(F)cc5F)c4)cc23)CC1 [Example 89, (E)-N-(2-chloro-5-(4-(4-(4-oxopent-2-enoyl)piperazin-1-yl)quinazolin-6-yl)pyridin-3-yl)-2,4,6-trifluorobenzenesulfonamide]	–	–	404	511	2.2	8.6	81.4	–	–	–	–	–
COc1ncc(-c2ccc3ncnc(N4CCC5(CN(C(=O)/C=C/C(C)=O)C5)C4)c3c2)cc1NS(=O)(=O)c1c(F)cc(F)cc1F [Example 97, (E)-2,4,6-trifluoro-N-(2-methoxy-5-(4-(2-(4-oxopent-2-enoyl)-2,6-diazaspiro[3.4]octan-6-yl)quinazolin-6-yl)pyridin-3-yl)benzenesulfonamide]	–	–	101	109	1.4	14.1	13.7	–	–	–	–	–
COc1ncc(-c2ccc3ncnc(N4CCN(C(=O)/C=C/C(C)=O)CC4)c3c2)cc1NS(=O)(=O)c1ccncc1F [Example 103, (E)-3-fluoro-N-(2-methoxy-5-(4-(4-(4-oxopent-2-enoyl)piperazin-1-yl)quinazolin-6-yl)pyridin-3-yl)pyridine-4-sulfonamide]	–	–	203	344	0.95	32.2	83	–	–	–	–	–
COc1ncc(-c2ccc3ncnc(N4CCN(C(=O)/C=C/C(C)=O)CC4)c3c2)cc1NS(=O)(=O)c1cc(Cl)cn1C [Example 104, (E)-4-Chloro-N-(2-methoxy-5-(4-(4-(4-oxopent-2-enoyl)piperazin-1-yl)quinazoline-6-yl)pyridin-3-yl)-1-methyl-1H-pyrrole-2-sulfonamide]	–	–	169	139	3.8	32.2	74.2	–	–	–	–	–
COc1ncc(-c2ccc3ncnc(N4CCN(C(=O)/C=C/C(C)=O)CC4)c3n2)cc1NS(=O)(=O)c1ccc(F)cc1F [Example 132, (E)-2,4-difluoro-N-(2-methoxy-5-(4-(4-(4-oxopent-2-enoyl)piperazin-1-yl)pyrido[3,2-d]pyrimidin-6-yl)pyridin-3-yl)benzenesulfonamide]	–	–	318	16.1	–	–	4	–	3.6	29.2	–	–
COc1ncc(-c2ccc3ncnc(N4CCN(C(=O)/C=C/C(C)=O)CC4)c3n2)cc1NS(=O)(=O)c1ccccc1F [Example 133, (E)-2-fluoro-N-(2-methoxy-5-(4-(4-(4-oxopent-2-enoyl)piperazin-1-yl)pyrido[3,2-d]pyrimidin-6-yl)pyridin-3-yl)benzenesulfonamide]	–	–	251	12	–	–	4.1	–	5.4	20.4	–	–
CNC(=O)/C=C/C(=O)N1CCN(c2ncnc3ccc(-c4cnc(OC)c(NS(=O)(=O)c5ccc(F)cc5F)c4)cc23)CC1 [Example 179, (E)-4-(4-(6-(5-((2,4-difluorophenyl)sulfonamido)-6-methoxy-pyridin-3-yl)quinazolin-4-yl)piperazin-1-yl)-N-methyl-4-oxobut-2-enamide]	–	–	147	87.8	–	–	276	–	–	–	0.37	–
CC(=O)/C=C/C(=O)N1CCN(c2ncnc3ccc(-c4cnc(N(C)C)c(NS(=O)(=O)c5ccc(F)cc5F)c4)cc23)CC1 [Example 195, (E)-N-(2-(dimethylamino)-5-(4-(4-(4-oxopent-2-enoyl)piperazin-1-yl)quinazolin-6-yl)pyridin-3-yl)-2,4-difluorobenzenesulfonamide]	–	–	158	93.3	–	–	43.9	92.3	–	–	2.4	13.5
COc1ncc(-c2ccc3ncnc(C4CCN(C(=O)/C=C/C(C)=O)C4)c3c2)cc1NS(=O)(=O)c1ccc(F)cc1F (stereo not shown) [Example 247, (E)-2,4-difluoro-N-(2-methoxy-5-(4-(1-(4-oxopent-2-enoyl)pyrrolidin-3-yl)quinazolin-6-yl)pyridin-3-yl)benzenesulfonamide]	–	–	277	–	–	–	–	–	–	–	0.53	3.33
